In a melting point compilation (Tetko et al.; mined from patent text by program, amines drawn as free bases though some values may be those of a salt):

With `O=C(O)C(CCCCCCCCCCCC(C(=O)O)C1CC1)C1CC1` (stereo unspecified) the melting point was 115 to 118 °C. Work on `Cn1c(=O)[nH]c2cc(CN3CCN(C(c4ccccc4)c4ccccc4)CC3)ccc21` yielded a melting point of 246 °C. Molecule `CSc1cc2ccc(-c3ccccc3)cc2cc1O` has a melting point of 149 to 150 °C. Molecule `CC(=O)O[C@H]1C[C@@H]2CN(C(=O)c3ccc(NC(=O)c4ccccc4-c4ccccc4)cc3)c3ccccc3CN2C1` has a melting point of 116 to 118 °C. Molecule `CCCCCCCCCCCCCCCCCCS(=O)(=O)c1cc2ccccc2c(N)c1O` has a melting point of 84 to 88 °C. With `CCCc1nc(C#N)c(C#N)n1C(c1ccccc1)(c1ccccc1)c1ccccc1` the melting point was 107 °C. Work on `COc1cc(N)c(Cl)cc1C(=O)NCC1CCN(CCCOc2ccccc2)CC1` yielded a melting point of 132 to 134 °C. `CN(C)CCOc1ccc(Cl)c(C(=O)O)c1Cl` showed a melting point of 234 to 236 °C. For `COC(=O)CCC(NC(=O)c1cn(C(c2ccccc2)(c2ccccc2)c2ccccc2)c(I)n1)C(=O)OC` (stereo unspecified), the melting point was 86 to 88 °C. In the case of `COC(=O)C=C1NCCOC1=O`, the melting point is reported as 76 to 79 °C. Work on `COc1ccc(OC)c(C2CC=CCC2[N+](=O)[O-])c1` (stereo unspecified) yielded a melting point of 73 to 75 °C. Work on `CCOC(=O)NC[C@H]1CN(c2ccc(N3CCC(n4ncnn4)CC3)c(F)c2)C(=O)O1` yielded a melting point of 176 to 178 °C. In the case of `CCOC(=O)COc1ccc(C(=O)c2c(Br)cnn2CC)c(Cl)c1Cl`, the melting point is reported as 90 to 91 °C. In the case of `OCC1OC(n2cnc3c(NC(c4ccccc4)c4ccccc4)ncnc32)C(O)C1O` (stereo unspecified), the melting point is reported as 89 to 96 °C. Work on `CSc1cn(C)c2cc(-c3ccccc3Cl)sc2c1=O` yielded a melting point of 175 to 177 °C. Work on `COc1ccc(-c2[nH]nc3c2C(=O)c2c(NC(=O)C(C)C)cccc2-3)cc1` yielded a melting point of 288 °C. For `NC(=O)c1ccc(Cc2ccccc2)cn1`, the melting point was 193 to 196 °C. `O=C1N(Cc2ccccc2)C2CSC(O)C2N1Cc1ccccc1` (stereo unspecified) showed a melting point of 163 to 164 °C. For `Oc1c2c3c(ccnc3c3ccccc13)CCC2`, the melting point was 260 °C. `CC(=O)NC[C@H]1CN(c2ccc(N3CCC(n4nnnc4Cc4cccs4)CC3)c(F)c2)C(=O)O1` gave a melting point of 149 to 150 °C. `CN(C)CCNC(=O)C(=O)c1ccc(OCCOc2ccc3ccccc3c2)cc1` gave a melting point of 102 to 104 °C. `Cc1cc(-c2c(-c3ccc(S(N)(=O)=O)cc3)cnn(-c3ccc(F)c(F)c3)c2=O)ccc1F` gave a melting point of 243 to 245 °C. With `O=Cc1cc(-c2cccs2)ccc1O` the melting point was 102 to 103 °C. `COc1ccc(Cn2c(=O)c3nccnc3n(CCCCBr)c2=O)cc1` showed a melting point of 117 to 119 °C. `CC(C)(C)OC(=O)N1C(=O)[C@H](O)[C@@H]1CC1CCCCC1` showed a melting point of 105 to 106 °C. `O=C(O)C=Cc1cc([N+](=O)[O-])ccc1Br` showed a melting point of 185 °C. `O=C(Oc1ccccc1)C1CCCc2ccc([N+](=O)[O-])cc21` (stereo unspecified) gave a melting point of 83 to 84 °C. With `Nc1cnc2cc(Cl)ccc2c1Nc1ccc(F)cc1` the melting point was 198 to 200 °C. `O=c1c2c(Cl)cc(Cl)cc2n(Cc2ccccc2)c(=O)n1Cc1cccc2ccccc12` showed a melting point of 220 to 226 °C. Molecule `CC(C)N(O)C(=O)Nc1cccc(S(C)=O)c1` (stereo unspecified) has a melting point of 135 to 136 °C. Molecule `Cn1ncc(NCCN2CCN(c3cccc4c3OCCO4)CC2)cc1=O` has a melting point of 188 to 190 °C. For `FC(F)(F)Cn1cc(C#Cc2cccc(OCC3CC3)c2)cn1`, the melting point was 63 to 65 °C. In the case of `O=C1CCC(c2ccc(O)cc2)N1` (stereo unspecified), the melting point is reported as 183 °C. For `C(=C\c1nc(COc2ccc(CCCn3cnc(-c4ccccc4)c3-c3ccccc3)cc2)co1)/c1ccccc1`, the melting point was 137 to 138 °C. In the case of `CN(O)C(=O)c1ccccc1`, the melting point is reported as < 20 °C. Molecule `COCc1nnc(NCCCN2CC3CCC(CC3)C2)c2cc3ccccn3c12` has a melting point of 229 to 232 °C. With `CNS(=O)(=O)c1cn(C)c2cc(C(F)(F)F)ccc2c1=O` the melting point was 218 to 219 °C. `CCOC(=O)c1cccn2ccnc12` showed a melting point of 48 to 50 °C. Work on `c1csc(-c2cn([C@H]3CN4CCC3CC4)nn2)c1` yielded a melting point of 137 °C. Work on `CCCCNC(=O)NS(=O)(=O)C(C)=Cc1ccccc1` yielded a melting point of 135 to 136 °C. `CS(=O)(=O)Nc1ccccc1OC1CCCCC1` showed a melting point of 113 to 115 °C. Work on `CC(=O)Nn1c(C)nc2cc(C(F)(F)F)ccc21` yielded a melting point of 214 to 216 °C. With `N#Cc1ccc(-c2ccc(S(=O)(=O)N(CCO)CCO)cc2)[nH]c1=O` the melting point was 226 to 228 °C. `COc1ccc(N2CCN(c3cccnn3)CC2)cc1` gave a melting point of 133 °C. `Cc1cccc(C(C)(C)CC(O)(C(=O)Nc2ccc3c(c2)COC3=O)C(F)(F)F)c1` (stereo unspecified) gave a melting point of 152 to 153 °C. `COCCN1CCC(c2ccc(C(=O)NC3(C(=O)NCC#N)CCCCC3)cc2)CC1` showed a melting point of 160 to 162 °C. For `CCn1c(=O)c2nc(-c3ccc(/C=C/C(=O)O)cc3)[nH]c2n(CC)c1=O`, the melting point was > 360 °C. For `Nc1ccc(-c2nc3c(O)cccc3c(=O)[nH]2)cc1`, the melting point was > 230 °C. Molecule `COc1ccc2c(c1)c(CC#N)cn2C(=O)OC(C)(C)C` has a melting point of 130 °C. Work on `CC(C)c1nc(C(C)C)c(CCCC(=O)O)c(-c2ccc(F)cc2)c1CO` yielded a melting point of 160 °C. `CCCc1c2[nH]c(C(=O)OCC)cc(=O)c2cc2c(=O)cc(C(=O)OCC)oc12` gave a melting point of 211 to 212 °C. With `CC(C)Oc1cc(F)nc(N)n1` the melting point was 66 to 68 °C. For `COc1cc2c(cc1OC)N(C(=O)c1ccc(-c3ccccc3C(F)(F)F)c(C)c1)Cc1ccc(C(=O)N(C)CC(O)CO)n1C2` (stereo unspecified), the melting point was 184 to 186 °C. In the case of `CSc1nn2c(N3CCN(C)CC3)cc(CN3CCOCC3)nc2c1S(=O)(=O)c1ccccc1`, the melting point is reported as 199 to 201 °C. For `CCSCCn1c(=N)sc2cc(OC(F)(F)C(F)(F)F)ccc21`, the melting point was < 50 °C. `Cn1c(C(F)(F)F)cc(=O)n(-c2cc(OCCOC=C(Cl)Cl)c(Cl)cc2F)c1=O` showed a melting point of 97 to 99 °C. `Cc1cc(C)cc(C(=O)/C=C/c2nc[nH]c2C)c1` showed a melting point of 165 to 166 °C. Molecule `COc1cc2cc(CO)cc(-c3ccnc(Cl)c3)c2cc1OC` has a melting point of 115 to 118 °C. `CC(=O)Nc1ncc(SCC(=O)O)s1` gave a melting point of 210 °C. `Cc1cc2c(nc(C)n2-c2ccc(C#N)cc2)c(C)n1` gave a melting point of 260 to 262 °C. `O=c1[nH]c2ccccc2c(=O)n1CCCCNCCCn1c(=O)[nH]c2ccccc2c1=O` showed a melting point of 140 °C. For `Cn1cc(Br)cc(Nc2cc3n(n2)CCOC3)c1=O`, the melting point was 195 to 197 °C. `CCCCCP(=O)(CC(=O)OC)OCc1ccc(-c2ccccc2C(=O)O)cc1` (stereo unspecified) showed a melting point of 101 to 102 °C. `CCCCCC(CC(=O)Nc1cc(CCC(=O)O)ccc1C(C)(C)C)c1c(OC)cccc1OC` (stereo unspecified) gave a melting point of 52 to 53 °C. With `CC(C)(C)c1cc(CCc2cc(F)ccc2NC(=O)NC2CCN(Cc3ccccc3)CC2)cc(C(C)(C)C)c1O` the melting point was 108 to 109 °C. Molecule `Cc1ccc2c(c1)[nH]c(=O)n2C1CCN(C2CCN(C(=O)OC(C)(C)C)CC2)CC1` has a melting point of 210 to 211 °C. Molecule `COC(=O)c1cccc(Sc2ccccc2)c1S(C)(=O)=O` has a melting point of 151 °C. `CC(C)(C)NC(=O)Oc1ccc(-c2nn(C3CCCC3)c3c(F)cccc23)cc1` showed a melting point of 157 °C. Molecule `CC1(C)Oc2ccsc2C(NC(=O)c2ccc(C#N)cc2)C1O` (stereo unspecified) has a melting point of 177 to 178 °C. `COc1ccc(CS(=O)(=O)C(C)(Cc2ccccc2)C(=O)O)cc1` (stereo unspecified) gave a melting point of 58 to 59 °C. `Cc1c(NC(=O)c2ccc(-c3ccc(F)cc3F)cc2F)ccc2cc(CN3CCCC3)cnc12` gave a melting point of 172 to 173 °C. Molecule `CCCCc1nc2ccn(Cc3ccc(N)cc3)c(=O)c2n1Cc1ccc(-c2ccccc2C#N)cc1` has a melting point of 223 °C. `CCOC(=O)c1cn2c3c(ccc(Cl)c3c1=O)OCC2C` (stereo unspecified) gave a melting point of 205 to 206 °C. With `N#CC(CN)C(CO)c1ccc(Cl)c(Cl)c1` (single isomer, unassigned; (+)) the melting point was 80 to 81 °C. Molecule `COCCOCCCn1c(C=O)c(Br)c2c3c(c(-c4ccccc4Cl)cc21)C(=O)NC3=O` has a melting point of 168 to 169 °C. In the case of `O=S1(=O)N=CN(C2CCCCCC2)c2cc(Cl)c(Cl)cc21`, the melting point is reported as 222 to 224 °C. Work on `O=S1(=O)N(CCCCBr)c2ccccc2N1c1ccc(Cl)cc1` yielded a melting point of 65 to 68 °C. `CCCc1nn(-c2ccc(C(F)(F)F)cn2)cc1CCCCOc1cc(CCC(=O)O)n(-c2ccccc2)n1` showed a melting point of 123 to 124 °C. With `Cc1ccc(C2=NNC(=O)CC2)cc1OCC1CO1` (stereo unspecified) the melting point was 128 to 132 °C. In the case of `C#CCOc1cc(NNC(=S)C(C)(C)C)c(Cl)cc1Cl`, the melting point is reported as 126 to 128 °C. In the case of `Cc1nc(N2CCN(Cc3ccccc3C(=O)O)C2=O)sc1C(=O)NCc1ccccc1`, the melting point is reported as 153 to 156 °C. Work on `O=C(Nc1ccccc1)N1CC2(CN1)CNN(C(=O)Nc1ccccc1)C2` yielded a melting point of 227 °C. Work on `CC(C)(C)c1cc(N2C=NC(NC(=N)N)S2)cc(C(C)(C)C)c1O` (stereo unspecified) yielded a melting point of 276 °C. `CC(Cc1ccc(C2OC(N)=NC2=O)cc1)NCC(O)c1cccc(C(F)(F)F)c1` (stereo unspecified) showed a melting point of 152 to 164 °C. Work on `CCC(C)CNc1cccc(-c2ccnc3c(C(=O)c4cccs4)cnn23)c1` (stereo unspecified) yielded a melting point of 210 to 212 °C. For `COC(=O)C(C)c1ccc(-c2ccccc2)c(O)c1` (stereo unspecified), the melting point was 106 to 108 °C. Work on `O=C1C(=O)N2CCCc3cccc1c32` yielded a melting point of 199 °C. `COC(=O)Nc1nc(-c2ccccc2)c(-c2nc3ccccc3c(=O)n2-c2cccc(C)c2)s1` gave a melting point of 268 to 269 °C. Work on `CCCCS(=O)(=O)NC1Cc2ccc(C(C)=O)cc2C1` (stereo unspecified) yielded a melting point of 90 to 92 °C. `CSc1ccc(C=CC(=O)c2cccc([N+](=O)[O-])c2)cc1` gave a melting point of 150 °C. For `COC(=O)C(=O)c1oc2cccc(OCc3ccc(F)cc3)c2c1O`, the melting point was 138 to 141 °C. For `O=C(O)c1[nH]c(=O)[nH]c(=O)c1[N+](=O)[O-]`, the melting point was > 300 °C. For `CCOC(=O)C(C)(NC(=O)CNC=O)C(=O)OCC`, the melting point was 98 to 99 °C. For `Cc1oc(-c2ccccc2)nc1COc1ccc(CC2SC(=O)NC2=O)cn1` (stereo unspecified), the melting point was 151 to 152 °C. For `COc1cn(C(c2ccccc2)c2ccccc2)c(=O)o1`, the melting point was 125 to 127 °C. `CCN(CC)C(=O)c1c(C(=O)NN=Cc2ccc(Cl)cc2)[nH]c2ccccc12` showed a melting point of 255 to 257 °C. Work on `CCOC(=O)C=Cc1ccc(CCc2nc(-c3ccccc3)oc2C)cc1` yielded a melting point of 73 to 74 °C. For `O=Cc1ccc(CCBr)cc1`, the melting point was 49 to 52 °C. `CCc1ccc2c(c1)C=Cc1cc(C)ccc1C2c1cn(Cc2ccc(C(=O)O)o2)c(=O)[nH]c1=O` (stereo unspecified) showed a melting point of 253 °C. `O=C(N[C@H]1CN(C(=O)N2CCC[C@H]2C(=O)O)C1=O)c1ccccc1` gave a melting point of 148 to 151 °C. For `Cc1cc(Oc2ccc(C(F)(F)F)cc2[N+](=O)[O-])nn1C(=O)NC(C)(C)C`, the melting point was 104 to 106 °C.
